Test results taken from patent US6949544B2, “Inhibitors of c-Jun N-terminal kinases (JNK) and other protein kinases” (Vertex Pharmaceuticals Incorporated, priority 2001, dated 2005).

Experiments:
[1] = target: T1, full length recombinant human Src kinase (Homo sapiens, UniProt P12931); assay: Src inhibition assay (33P incorporation into poly Glu-Tyr); type: biochemical
T1 construct: full length recombinant human Src kinase; purchased Upstate Biotechnology 14-117; host or cells: baculo viral cells (baculovirus expression)
Procedure: The compounds were assayed as inhibitors of full length recombinant human Src kinase (from Upstate Biotechnology, cat. no. 14-117) expressed and purified from baculo viral cells. Src kinase activity was monitored by following the incorporation of ^33P from ATP into the tyrosine of a random poly Glu-Tyr polymer substrate of composition, Glu:Tyr=4:1 (Sigma, cat. no. P-0275). The following were the final concentrations of the assay components: 0.05 M HEPES, pH 7.6, 10 mM MgCl2, 2 mM DTT, 0.25 mg/ml BSA, 10 μM ATP (1-2 μCi ^33P-ATP per reaction), 5 mg/ml poly Glu-Tyr, and 1-2 units of recombinant human Src kinase. In a typical assay, all the reaction components with the exception of ATP were pre-mixed and aliquoted into assay plate wells. […] The assay plate was incubated at 30° C. for 10 min before initiating the reaction with ^33P-ATP. After 20 min of reaction, the reactions were quenched with 150 μl of 10% trichloroacetic acid (TCA) containing 20 mM Na3PO4. The quenched samples were then transferred to a 96-well filter plate (Whatman, UNI-Filter GF/F Glass Fiber Filter, cat no. 7700-3310) installed on a filter plate vacuum manifold. Filter plates were washed four times with 10% TCA containing 20 mM Na3PO4 and then 4 times with methanol. 200 μl of scintillation fluid was then added to each well. The plates were sealed and the amount of radioactivity associated with the filters was quantified on a TopCount scintillation counter.

CDK-2/Cyclin A = CDK-2/Cyclin A (Homo sapiens, UniProt P24941); assay: CDK2 inhibition assay (standard coupled enzyme assay); type: biochemical; settings: 25 nM CDK-2/Cyclin A; read-out: CDK2 Inhibitory Activity (Ki rating A-C)
Outline: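 CDK-2/Cyclin A (25 nM final) started the reaction after 10-min, 30° C preincubation of compound (30 μM final) with peptide (100 μM), ATP and coupling enzymes in HEPES pH 7.5.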

T1 sequence (P12931 whole entry): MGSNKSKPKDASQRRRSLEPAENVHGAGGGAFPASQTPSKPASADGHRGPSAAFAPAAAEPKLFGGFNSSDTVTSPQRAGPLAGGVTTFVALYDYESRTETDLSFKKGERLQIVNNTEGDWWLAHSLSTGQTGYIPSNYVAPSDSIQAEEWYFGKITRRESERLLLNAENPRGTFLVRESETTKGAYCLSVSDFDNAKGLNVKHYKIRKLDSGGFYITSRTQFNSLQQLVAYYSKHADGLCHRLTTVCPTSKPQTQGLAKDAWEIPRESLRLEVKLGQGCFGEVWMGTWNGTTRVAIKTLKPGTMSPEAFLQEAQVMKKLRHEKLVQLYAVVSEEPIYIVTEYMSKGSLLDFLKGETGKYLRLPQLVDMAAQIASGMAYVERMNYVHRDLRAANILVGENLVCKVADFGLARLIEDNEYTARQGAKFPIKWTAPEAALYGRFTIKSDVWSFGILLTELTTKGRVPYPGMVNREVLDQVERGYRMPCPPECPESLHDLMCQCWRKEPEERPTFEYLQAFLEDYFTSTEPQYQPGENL

| Ki ([1]; 10 μM ATP, read-out: Activity in the SRC Inhibition Assay (Ki rating A-C)) [µM] | Ki (CDK-2/Cyclin A) [µM] | inhibition at 2 µM ([1]; at a 2 μM inhibitor concentration, read-out: Activity in the SRC Inhibition Assay (percent inhibition rating D-F)) [%] | SMILES |
| --- | --- | --- | --- |
| > 1 | > 5 |  | COc1cc(-c2ccnc(Nc3ccc(N)cc3)n2)cc(OC)c1OC [Compound I-34] |
|  | > 5 | 24 to 66 | COc1cc(-c2ccnc(Nc3cccc(N)c3)n2)cc(OC)c1OC [Compound I-57] |
